Experiment in all cases: Cell assay (liposome/EV binding, flow cytometry)
In general terms: In flow cytometry, cells or beads pass a laser one at a time.

Experiment [1] relates to untransfected (UT) CHO cells. Type of experiment: cell-based, Chinese Hamster. As to conditions: for log10(MFI AF647) of GLL relative to log10(MFI AF647) of the same GLL against UT CHO cells (Fig. 2a): 3 mol% ganglioside liposomes, replicates. The method, then: (§1) Stock lipids (DSPC, Cholesterol, PEG45–DSPE) solutions were prepared by solvating the lipids in chloroform. An appropriate volume of each lipid solution was transferred to a glass test tube to reach the desired mol% of the component. The chloroform was then removed under N2 gas to yield a lipid thin film. Once dry, 100 µL of DMSO was added to the lipid-containing test tube and then the functional lipids (ganglioside, AF647–PEG45–DSPE, Siglec ligand–PEG45–DSPE, pHrodo–PEG45–DSPE, NGL) was added from their respect DMSO stock solution. The lipid mixture was then stored at −80 °C until completely frozen at which point excess DMSO was removed via lyophilization. Dry lipids were then stored at −80 °C until they were extruded. Lipid suppliers can be found in Supplementary Table 4.
(§2) Dry lipids were then hydrated in 1 mL of PBS. The lipids were then sonicated in a bath sonicator in a cycle of 1 min on, 5 min off for a total of five cycles. Liposomes were then extruded using an Avanti mini extruder first using an 800 nm filter and then a 100 nm filter yielding liposomes that were 130 ± 35 nm (Supplementary Table 5) measured using a Malvern Panalytical Zetasizer Nano S. Liposomes were stored at 4 °C.
(§3) 200,000 cells/well were plated into a 96-well U-bottom microplate and centrifuged at 300 × g for 5 min. The cells were then resuspended in 50 µL of 50 µM liposome/50 µg/mL (protein concentration) of EV solution in DMEM F12 5% FBS and incubated at 37 °C for 30 min. Excess liposomes were then removed via centrifuged at 300 × g for 5 min followed by washing the cells with FACS solution. The cells were then resuspended in (1:250 V/V) anti-Siglec-flow buffer (1% V/V FBS, 500 µM, EDTA Hank’s Balanced Salt Solution pH 7.4), solution and left to rest on ice for 30 min. The cells were then centrifuged again at 300 × g for 5 min and the cells were resuspended in FACS buffer solution and were then ready for analysis by flow cytometry. Information regarding antibody clone, catalog number supplier, label isotype, and dilution can be found in Supplementary Table 6. The Siglec-positive cells were gated on for liposome-binding analysis (Supplementary Fig. 1b).
(§4) Flow cytometry measurements were collected on a 5-laser Fortessa X-20 (BD Bioscience). All the resulting data were analyzed using FlowJo (10.5.3) software (BD Biosciences).

The target of another experiment is T1, WT Siglec-1 CHO cells (Homo sapiens, UniProt Q9BZZ2).
T1 construct: expressed in transfected cells
It is filed as cell-based. Also on record: GM1 liposome binding to Siglec-1 CHO cells, flow cytometry (Fig. 1b) / Binding of liposomes with increasing ganglioside content against Siglec-1 CHO cells (Fig. 1c) / Liposome binding to Siglec-1-expressing CHO cells in the cell assay (Fig. 1f): unit not given here. As to conditions: for log10(MFI AF647) of GLL relative to log10(MFI AF647) of the same GLL against UT CHO cells (Fig. 2a): Sig-1 WT, 3 mol% ganglioside liposomes; for log10(MFI AF647) of GLL relative to log10(MFI AF647) of the same GLL against UT CHO cells (Fig. 2a) / Binding of liposomes with increasing ganglioside content against Siglec-1 CHO cells (Fig. 1c) / Liposome binding to Siglec-1-expressing CHO cells in the cell assay (Fig. 1f): replicates; for GM1 liposome binding to Siglec-1 CHO cells, flow cytometry (Fig. 1b): 3 mol% GM1 liposomes, technical replicates. The method, then: as §1, §2, §3, §4

The next experiment addresses T2, R122A Siglec-6 CHO cells (Homo sapiens, UniProt O43699, R122A).
T2 construct: expressed in transfected cells
Type of experiment: cell-based. As to conditions: replicates; for log10(MFI AF647) of GLL relative to log10(MFI AF647) of the same GLL against UT CHO cells (Fig. 2a): Sig-6 R122A, 3 mol% ganglioside liposomes. In outline: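 Liposomes of DSPC, cholesterol and PEG45–DSPE carrying AF647–PEG45–DSPE and Siglec ligand–PEG45–DSPE were extruded through 800 then 100 nm filters (130 ± 35 nm). CHO cells were incubated with 50 µM liposome or 50 µg/mL (protein) EVs in DMEM F12 5% FBS for 30 min at 37 °C, then anti-Siglec stained on ice; binding read on Siglec-positive gated cells by flow cytometry.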

Experiment [2] concerns the target T3, Siglec-10 R119A CHO cells (Homo sapiens, UniProt Q96LC7, R119A).
T3 construct: expressed in transfected cells
T3 sequence (Q96LC7 17-697 R119A): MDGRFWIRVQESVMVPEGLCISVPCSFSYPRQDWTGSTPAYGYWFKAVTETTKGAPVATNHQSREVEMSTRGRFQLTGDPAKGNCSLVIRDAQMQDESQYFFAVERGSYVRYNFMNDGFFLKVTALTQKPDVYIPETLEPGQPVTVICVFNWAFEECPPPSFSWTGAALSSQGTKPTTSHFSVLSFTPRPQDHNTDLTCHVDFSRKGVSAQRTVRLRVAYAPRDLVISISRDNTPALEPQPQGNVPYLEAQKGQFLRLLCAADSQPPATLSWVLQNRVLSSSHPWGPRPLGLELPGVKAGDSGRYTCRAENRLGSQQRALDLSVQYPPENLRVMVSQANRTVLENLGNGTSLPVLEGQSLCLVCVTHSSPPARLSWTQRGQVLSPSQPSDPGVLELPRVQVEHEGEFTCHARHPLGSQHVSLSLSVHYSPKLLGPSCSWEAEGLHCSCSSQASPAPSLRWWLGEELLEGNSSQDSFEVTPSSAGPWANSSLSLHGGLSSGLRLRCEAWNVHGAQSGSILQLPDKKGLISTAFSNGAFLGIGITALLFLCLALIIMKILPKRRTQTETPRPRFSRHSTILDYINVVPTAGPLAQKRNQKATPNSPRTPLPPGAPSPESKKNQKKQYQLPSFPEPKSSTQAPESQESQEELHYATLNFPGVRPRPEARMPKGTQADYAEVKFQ
Type of experiment: cell-based. As to conditions: Sig-10 R119A; 3 mol% ganglioside liposomes; replicates. In outline:
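CHO cells expressing the indicated Siglec (wild-type or R-to-A mutant) were incubated 30 min at 37 °C with 50 µM fluorescent DSPC/cholesterol/PEG-DSPE liposomes (~130 nm, Siglec ligand-bearing) or 50 µg/mL EVs in DMEM F12 5% FBS. After washing and anti-Siglec staining on ice, binding was measured by flow cytometry on Siglec-positive gated cells.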

Results on 8 compounds are retold here after article PMC10122656, “Siglec-6 mediates the uptake of extracellular vesicles through a noncanonical glycolipid binding pocket” (Nature Communications, 2023).

Where “and” joins values, the source holds several entries; their conditions need not be identical. Equal values may be shown once.
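For liposome binding, fluorescence signal (replicates) in this document: AF647 fluorescence intensity from 0.1 mol% AF647–PEG45–DSPE in liposomes.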

T1 sequence (Q9BZZ2 20-1709): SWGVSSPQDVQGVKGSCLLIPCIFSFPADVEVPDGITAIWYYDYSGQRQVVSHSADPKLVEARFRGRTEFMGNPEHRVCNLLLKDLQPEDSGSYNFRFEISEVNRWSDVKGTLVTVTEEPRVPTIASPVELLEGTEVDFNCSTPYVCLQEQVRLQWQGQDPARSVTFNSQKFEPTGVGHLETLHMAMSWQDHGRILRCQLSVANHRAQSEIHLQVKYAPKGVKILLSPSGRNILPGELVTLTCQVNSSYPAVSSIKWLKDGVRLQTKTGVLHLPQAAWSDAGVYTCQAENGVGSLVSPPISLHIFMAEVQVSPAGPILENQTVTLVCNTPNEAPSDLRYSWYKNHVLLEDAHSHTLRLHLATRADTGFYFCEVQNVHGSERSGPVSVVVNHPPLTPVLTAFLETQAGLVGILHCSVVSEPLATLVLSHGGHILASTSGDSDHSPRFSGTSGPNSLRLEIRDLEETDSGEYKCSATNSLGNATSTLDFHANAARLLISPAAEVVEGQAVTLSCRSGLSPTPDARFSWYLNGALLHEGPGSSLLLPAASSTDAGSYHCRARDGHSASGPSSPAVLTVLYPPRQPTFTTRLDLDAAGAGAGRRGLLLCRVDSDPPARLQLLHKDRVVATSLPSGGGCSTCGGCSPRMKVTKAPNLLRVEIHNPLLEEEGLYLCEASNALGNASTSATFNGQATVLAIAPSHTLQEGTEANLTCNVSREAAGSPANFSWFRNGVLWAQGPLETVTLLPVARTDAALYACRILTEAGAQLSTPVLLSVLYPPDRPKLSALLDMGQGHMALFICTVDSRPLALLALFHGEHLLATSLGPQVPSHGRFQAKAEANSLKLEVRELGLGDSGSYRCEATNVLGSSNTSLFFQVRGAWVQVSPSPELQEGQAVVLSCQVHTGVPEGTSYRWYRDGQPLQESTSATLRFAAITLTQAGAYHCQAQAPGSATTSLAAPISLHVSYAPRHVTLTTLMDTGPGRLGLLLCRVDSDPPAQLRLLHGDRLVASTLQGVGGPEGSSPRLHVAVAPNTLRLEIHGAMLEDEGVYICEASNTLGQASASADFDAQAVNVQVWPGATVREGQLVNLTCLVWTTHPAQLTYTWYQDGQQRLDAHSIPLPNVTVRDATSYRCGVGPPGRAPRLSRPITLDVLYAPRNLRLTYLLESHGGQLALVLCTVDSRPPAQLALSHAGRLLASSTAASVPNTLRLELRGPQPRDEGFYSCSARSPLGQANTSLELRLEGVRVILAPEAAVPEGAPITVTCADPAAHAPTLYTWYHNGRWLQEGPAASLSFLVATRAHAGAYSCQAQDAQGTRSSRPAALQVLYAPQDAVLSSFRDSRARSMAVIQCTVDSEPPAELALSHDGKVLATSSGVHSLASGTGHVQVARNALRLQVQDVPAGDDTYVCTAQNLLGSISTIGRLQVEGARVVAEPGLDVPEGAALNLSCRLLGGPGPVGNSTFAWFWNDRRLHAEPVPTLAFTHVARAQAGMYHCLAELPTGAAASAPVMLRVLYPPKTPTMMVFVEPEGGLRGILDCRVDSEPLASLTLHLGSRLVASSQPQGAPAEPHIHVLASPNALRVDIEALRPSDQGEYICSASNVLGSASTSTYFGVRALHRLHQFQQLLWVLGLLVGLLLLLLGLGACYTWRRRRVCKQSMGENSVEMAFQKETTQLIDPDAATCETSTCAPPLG
T2 sequence (O43699 27-453 R122A): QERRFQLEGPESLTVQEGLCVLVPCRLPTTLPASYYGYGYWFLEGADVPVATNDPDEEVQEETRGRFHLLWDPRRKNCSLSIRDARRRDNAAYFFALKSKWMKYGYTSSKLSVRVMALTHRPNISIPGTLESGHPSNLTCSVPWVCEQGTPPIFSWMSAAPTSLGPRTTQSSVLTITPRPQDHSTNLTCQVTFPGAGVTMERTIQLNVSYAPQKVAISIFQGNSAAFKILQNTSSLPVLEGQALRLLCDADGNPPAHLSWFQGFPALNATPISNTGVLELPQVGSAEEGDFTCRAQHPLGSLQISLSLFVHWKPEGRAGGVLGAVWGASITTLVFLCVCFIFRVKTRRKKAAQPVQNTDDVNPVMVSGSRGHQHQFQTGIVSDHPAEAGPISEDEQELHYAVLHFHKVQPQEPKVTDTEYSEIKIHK

For the compound GD3, the “log10(MFI AF647) of GLL relative to log10(MFI AF647) of the same GLL against UT CHO cells (Fig. 2a)” value in experiment [1] (UT) is 0.01 (2×) and -0.01 (2×); on WT Siglec-1 CHO cells it was 0.41 (3×) and 0.45; on R122A Siglec-6 CHO cells it was 0.78 (2×) and 0.7 and 0.79; in experiment [2], 0.12 (2×) and 0.09 and 0.1.

On to GD1b, for which the “log10(MFI AF647) of GLL relative to log10(MFI AF647) of the same GLL against UT CHO cells (Fig. 2a)” value was 0.01 (2×) and -0.01 (2×) in experiment [1] (UT); 0.7 and 0.71 (2×) and 0.63 at WT Siglec-1 CHO cells; 0.2 and 0.17 (2×) and 0.16 at R122A Siglec-6 CHO cells; -0.02 and -0.04 and -0.01 and 0 in experiment [2].

Consider GM3, for which the “log10(MFI AF647) of GLL relative to log10(MFI AF647) of the same GLL against UT CHO cells (Fig. 2a)” value in experiment [1] (UT) was 0.01 (2×) and -0.01 and 0; on WT Siglec-1 CHO cells, 0.19 and 0.16 and 0.23 and 0.17; on R122A Siglec-6 CHO cells it was -0.11 (2×) and -0.14 (2×); in experiment [2], -0.12 (2×) and -0.13 (2×). The “Binding of liposomes with increasing ganglioside content against Siglec-1 CHO cells (Fig. 1c)” value is 0 at WT Siglec-1 CHO cells (0.0187 Ligand/nm2); 0.02 at WT Siglec-1 CHO cells (0.056 Ligand/nm2); 0.04 on WT Siglec-1 CHO cells (0.0933 Ligand/nm2); 0.13 (2×) and 0.12 and 0.14 and 0.16 (4×) at WT Siglec-1 CHO cells (0.187 Ligand/nm2); 0.33 and 0.36 and 0.26 on WT Siglec-1 CHO cells (0.373 Ligand/nm2). The “trend of GLL binding to Siglec-1 CHO cells with ganglioside content” value at WT Siglec-1 CHO cells (ganglioside titrated in GLLs) was “progressive increase in GLL binding up to 20 mol%”.

As for GT1b, the “log10(MFI AF647) of GLL relative to log10(MFI AF647) of the same GLL against UT CHO cells (Fig. 2a)” value in experiment [1] (UT) was 0 (2×) and 0.01 and -0.01; on WT Siglec-1 CHO cells it was 0.29 (2×) and 0.32 and 0.23; at R122A Siglec-6 CHO cells, 0.72 and 0.7 and 0.61 and 0.69; in experiment [2], 0.05 and 0.03 (2×) and 0.

As to GM1, the “log10(MFI AF647) of GLL relative to log10(MFI AF647) of the same GLL against UT CHO cells (Fig. 2a)” value was 0.07 and -0.03 (2×) and -0.01 in experiment [1] (UT); 0.34 and 0.29 and 0.27 and 0.31 on WT Siglec-1 CHO cells; 0.91 and 0.89 and 0.86 and 0.85 at R122A Siglec-6 CHO cells; -0.02 and 0.03 and 0.04 and 0.09 in experiment [2]. The “Binding of liposomes with increasing ganglioside content against Siglec-1 CHO cells (Fig. 1c)” value is 0.02 at WT Siglec-1 CHO cells (0.0187 Ligand/nm2); 0.13 (2×) and 0.12 (2×) at WT Siglec-1 CHO cells (0.0373 Ligand/nm2); 0.26 and 0.28 and 0.27 (2×) at WT Siglec-1 CHO cells (0.056 Ligand/nm2); 0.26 and 0.25 and 0.27 and 0.28 on WT Siglec-1 CHO cells (0.0933 Ligand/nm2); 0.19 and 0.18 (2×) and 0.16 on WT Siglec-1 CHO cells (0.187 Ligand/nm2); 0.08 (3×) and 0.07 at WT Siglec-1 CHO cells (0.373 Ligand/nm2). The “Liposome binding to Siglec-1-expressing CHO cells in the cell assay (Fig. 1f)” value was 926 and 882 and 896 at WT Siglec-1 CHO cells (3% glycolipid in liposome); 316 and 299 and 296 at WT Siglec-1 CHO cells (20% glycolipid in liposome). The “GM1 liposome binding to Siglec-1 CHO cells, flow cytometry (Fig. 1b)” value on WT Siglec-1 CHO cells (0.2 mol% PEG45–DSPE) is 1640 and 1691 and 1719 and 1798; at WT Siglec-1 CHO cells (0.5 mol% PEG45–DSPE), 1529 and 1675 and 1687 and 1576 and 1551; on WT Siglec-1 CHO cells (1 mol% PEG45–DSPE), 687 and 675 and 684 and 712 and 741; on WT Siglec-1 CHO cells (2 mol% PEG45–DSPE), 106 and 105 and 107 and 111 and 113; at WT Siglec-1 CHO cells (5 mol% PEG45–DSPE) it was 79 and 80 and 82 and 81. Moreover, at WT Siglec-1 CHO cells (cell assay), the “binding to WT Siglec-1 CHO cells (in words)” value is “No differences in binding”. For the same compound, the “ganglioside content threshold above which GLL binding to Siglec-1 CHO cells decreased” value at WT Siglec-1 CHO cells (ganglioside titrated in GLLs) was 1–3 mol%.

In the case of GQ1b, the “log10(MFI AF647) of GLL relative to log10(MFI AF647) of the same GLL against UT CHO cells (Fig. 2a)” value in experiment [1] (UT) is 0.01 and -0.02 (2×) and 0.03; at WT Siglec-1 CHO cells it was 0.04 and 0.07 and 0.05 and 0.03; on R122A Siglec-6 CHO cells it was 0.46 and 0.48 and 0.4 and 0.42; in experiment [2] it was -0.06 (2×) and -0.07 and -0.05.

For the compound `CCCCCCCCCCCCCCCCOCC(COCCCCCCCCCCCCCCCC)OCc1cn(CCO[C@@H]2O[C@H](CO)[C@@H](O[C@@H]3O[C@H](CO)[C@H](O)[C@H](O[C@]4(C(=O)O)C[C@H](O)[C@@H](NC(C)=O)[C@H]([C@H](O)[C@H](O)CO)O4)[C@H]3O)[C@H](O)[C@H]2O)nn1` [GM3-DAG], the “liposome binding, fluorescence signal (replicates)” value was 267 and 269 and 241 and 218 in experiment [1] (sheet Figure S22b, CHO); 298 and 293 and 301 and 291 in experiment [1] (sheet Figure S26a, 3% GM3-DAG liposomes, Untrans.); 268 and 273 and 248 and 260 in experiment [1] (sheet Figure S28b, 3% GM3-DAG liposomes, UT); 38 and 35 and 41 in experiment [1] (sheet Figure S26d, CHO).

As to `CCCCCCCCCCCCCCCCOCC(COCCCCCCCCCCCCCCCC)OCc1cn(CCO[C@@H]2O[C@H](CO)[C@@H](O[C@@H]3O[C@H](CO)[C@H](O)[C@H](O[C@]4(C(=O)O)C[C@H](O)[C@@H](NC(C)=O)[C@H]([C@H](O)[C@H](O)CO)O4)[C@H]3O)[C@H](O)[C@H]2O)nn1` [nGL 5], the “Binding of nGL liposomes relative to liposomes formulated with 3 mol% nGL 5 (Fig. 3g)” value on R122A Siglec-6 CHO cells (R122A Siglec-6 CHO cells, 3 mol% nGL) is 1.02 and 1.01 and 0.97.
